What was measured:
dopamine uptake site = biological target: T1, dopamine uptake site (Cavia porcellus, UniProt H0WCX4); experiment: Dopamine Reuptake Binding Assay; details: 10^-6 M; Guinea pig striatal membranes; [3H]WIN,35,428 1.0 nM
T1 construct: Guinea pig striatal membranes; from tissue; host or cells: guinea pig striatal membranes

GABA uptake site = biological target: T2, GABA uptake site (Rattus norvegicus, UniProt P23978); experiment: biochemical; details: read-out: Receptor Binding Activity Percent Inhibition Average (N = 2)
T2 construct: Rat cortical membranes; from tissue; host or cells: rat cortical membranes

Dopamine (D1 Central) = biological target: T3, Dopamine (D1 Central) (Rattus norvegicus, UniProt P18901); experiment: Dopamine (D1 Central) Binding Assay; details: 10^-6 M; Rat striatal membranes; [3H]SCH 23390 0.5 nM
T3 construct: Rat striatal membranes; from tissue; host or cells: rat striatal membranes
T3 sequence (P18901 whole entry): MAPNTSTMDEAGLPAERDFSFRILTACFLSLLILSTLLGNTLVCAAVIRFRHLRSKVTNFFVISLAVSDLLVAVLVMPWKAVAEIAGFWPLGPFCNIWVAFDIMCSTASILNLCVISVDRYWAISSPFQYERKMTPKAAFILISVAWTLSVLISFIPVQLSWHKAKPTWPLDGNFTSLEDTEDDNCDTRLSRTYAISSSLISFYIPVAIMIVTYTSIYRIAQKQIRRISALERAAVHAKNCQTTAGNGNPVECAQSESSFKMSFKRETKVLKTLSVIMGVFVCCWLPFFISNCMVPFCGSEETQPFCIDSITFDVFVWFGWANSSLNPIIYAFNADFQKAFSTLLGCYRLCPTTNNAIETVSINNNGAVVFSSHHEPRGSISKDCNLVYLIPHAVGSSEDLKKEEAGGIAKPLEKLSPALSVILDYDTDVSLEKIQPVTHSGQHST

Histamine (H2) = biological target: T4, Histamine (H2) (Cavia porcellus, UniProt P47747); experiment: Histamine (H2) Binding Assay; set-up: species or system Guinea pig; details: 10^-6 M; Guinea pig striatal membranes; [3H]Tiotidine 4.0 nM; read-out: Receptor Binding Activity Percent Inhibition Average (N = 2)
T4 construct: Guinea pig striatal membranes; from tissue; host or cells: guinea pig striatal membranes
T4 sequence (P47747 whole entry): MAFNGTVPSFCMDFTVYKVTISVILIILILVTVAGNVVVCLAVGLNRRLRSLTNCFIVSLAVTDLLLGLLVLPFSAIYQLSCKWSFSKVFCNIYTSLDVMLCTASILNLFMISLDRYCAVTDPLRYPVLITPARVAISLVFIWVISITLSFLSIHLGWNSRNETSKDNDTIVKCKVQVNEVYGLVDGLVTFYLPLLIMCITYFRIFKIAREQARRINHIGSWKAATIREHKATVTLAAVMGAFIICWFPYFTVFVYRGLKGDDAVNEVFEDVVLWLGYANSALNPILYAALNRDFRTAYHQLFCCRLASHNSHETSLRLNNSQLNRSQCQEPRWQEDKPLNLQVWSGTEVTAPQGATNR

Histamine (H3) = biological target: T5, Histamine (H3) (Rattus norvegicus, UniProt Q9QYN8); experiment: Histamine (H3) Binding Assay; details: 10^-6 M; Rat forebrain membranes; [3H]N^a-methylhistamine 0.2 nM; read-out: Receptor Binding Activity Percent Inhibition Average (N = 2)
T5 construct: Rat forebrain membranes; from tissue; host or cells: rat forebrain membranes
T5 sequence (Q9QYN8 whole entry): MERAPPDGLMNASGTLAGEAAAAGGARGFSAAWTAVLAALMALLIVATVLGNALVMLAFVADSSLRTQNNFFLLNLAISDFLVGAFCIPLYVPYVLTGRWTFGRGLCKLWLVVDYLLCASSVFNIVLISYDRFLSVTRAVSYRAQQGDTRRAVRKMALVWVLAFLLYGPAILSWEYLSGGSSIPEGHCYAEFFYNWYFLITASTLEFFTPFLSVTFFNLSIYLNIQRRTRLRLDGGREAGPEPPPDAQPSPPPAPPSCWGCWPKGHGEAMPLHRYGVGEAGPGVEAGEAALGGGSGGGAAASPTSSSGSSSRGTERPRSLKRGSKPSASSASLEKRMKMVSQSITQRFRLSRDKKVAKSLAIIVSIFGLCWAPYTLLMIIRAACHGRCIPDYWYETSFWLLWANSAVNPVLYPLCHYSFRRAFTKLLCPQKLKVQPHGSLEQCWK

Serotonin (5HT1) = Serotonin (5HT1) Binding Assay; details: 10^-6 M; Rat cortical membranes; [3H]Hydroxytryptamine binoxalate 3.0 nM
Serotonin (5HT1A) = biological target: T6, Serotonin (5HT1A) (Bos taurus, UniProt F6Q2H9); experiment: Serotonin (5HT1A) Binding Assay; set-up: species or system Bovine; details: 10^-6 M; Bovine hippocampal membranes; [3H]-8-OH-DPAT 1.0 nM; read-out: Receptor Binding Activity Percent Inhibition Average (N = 2)
T6 construct: Bovine hippocampal membranes; from tissue; host or cells: bovine hippocampal membranes
T6 sequence (F6Q2H9 1-422): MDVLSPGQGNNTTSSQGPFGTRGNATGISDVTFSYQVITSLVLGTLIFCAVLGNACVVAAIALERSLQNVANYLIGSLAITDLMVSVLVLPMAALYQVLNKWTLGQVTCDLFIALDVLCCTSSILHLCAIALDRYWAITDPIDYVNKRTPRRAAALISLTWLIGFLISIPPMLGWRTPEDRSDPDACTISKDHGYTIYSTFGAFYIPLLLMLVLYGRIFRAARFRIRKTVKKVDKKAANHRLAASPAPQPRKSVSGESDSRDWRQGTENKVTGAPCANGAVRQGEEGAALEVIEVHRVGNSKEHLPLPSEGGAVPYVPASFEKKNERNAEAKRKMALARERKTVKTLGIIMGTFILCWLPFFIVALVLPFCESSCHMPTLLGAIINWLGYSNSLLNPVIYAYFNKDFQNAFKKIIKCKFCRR

[1] = tested on: Serotonin (Non-Selective); experiment: Serotonin (Non-Selective) Binding Assay; details: 10^-6 M; Rat cortical membranes; [3H]Lysergic acid diethylamide 5.0 nM
Opiate (Delta) = biological target: T7, Opiate (Delta) (Rattus norvegicus, UniProt P33533); experiment: Opiate (Delta) Binding Assay; details: read-out: Receptor Binding Activity Percent Inhibition Average (N = 2)
T7 construct: Rat forebrain membranes; from tissue; host or cells: rat forebrain membranes
T7 sequence (P33533 whole entry): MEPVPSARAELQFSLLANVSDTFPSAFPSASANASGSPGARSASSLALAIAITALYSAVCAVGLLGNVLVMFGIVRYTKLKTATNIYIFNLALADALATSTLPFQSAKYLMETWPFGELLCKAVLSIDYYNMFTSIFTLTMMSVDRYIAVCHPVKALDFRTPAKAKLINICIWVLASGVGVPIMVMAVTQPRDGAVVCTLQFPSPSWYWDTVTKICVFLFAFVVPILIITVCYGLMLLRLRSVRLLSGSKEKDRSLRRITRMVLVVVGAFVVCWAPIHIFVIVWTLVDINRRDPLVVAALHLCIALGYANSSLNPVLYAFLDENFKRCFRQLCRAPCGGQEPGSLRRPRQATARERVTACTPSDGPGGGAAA

[2] = biological target: T8, Benzodiazepine (Peripheral) (Rattus norvegicus, UniProt P16257); experiment: Benzodiazepine (Peripheral) Binding Assay; details: read-out: Receptor Binding Activity Percent Inhibition Average (N = 2)
T8 construct: Rat kidney membranes; from tissue; host or cells: rat kidney membranes
T8 sequence (P16257 whole entry): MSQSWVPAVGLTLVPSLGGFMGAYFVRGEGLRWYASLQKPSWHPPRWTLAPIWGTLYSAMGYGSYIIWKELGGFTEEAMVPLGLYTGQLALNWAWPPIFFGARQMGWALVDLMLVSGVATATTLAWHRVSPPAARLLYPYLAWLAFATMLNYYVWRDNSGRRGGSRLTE

[3] = biological target: Glycine (Strychnine Insensitive) (Rattus norvegicus, UniProt P35439); experiment: biochemical; format: binding; details: read-out: Receptor Binding Activity Percent Inhibition Average (N = 2)
[4] = biological target: T9, Human recombinant M2 clone (Homo sapiens, UniProt P08172); experiment: Muscarinic--M2 Clone Binding Assay; details: read-out: Receptor Binding Activity Percent Inhibition Average (N = 2)
T9 construct: expressed in transfected cells
T9 sequence (P08172 1-466): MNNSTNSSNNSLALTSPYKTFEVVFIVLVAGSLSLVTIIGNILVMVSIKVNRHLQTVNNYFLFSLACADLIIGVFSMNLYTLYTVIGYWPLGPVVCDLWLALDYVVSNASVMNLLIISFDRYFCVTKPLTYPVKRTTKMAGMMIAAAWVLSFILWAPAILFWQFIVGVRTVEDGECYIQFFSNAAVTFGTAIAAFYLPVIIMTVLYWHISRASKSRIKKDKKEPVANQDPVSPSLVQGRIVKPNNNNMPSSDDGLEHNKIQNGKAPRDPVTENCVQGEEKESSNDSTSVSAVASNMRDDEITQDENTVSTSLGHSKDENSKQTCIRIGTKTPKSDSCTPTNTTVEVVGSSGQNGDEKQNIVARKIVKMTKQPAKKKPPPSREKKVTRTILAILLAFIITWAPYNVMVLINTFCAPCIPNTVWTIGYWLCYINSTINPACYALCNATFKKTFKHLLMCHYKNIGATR

[5] = biological target: T10, recombinant Rat 5HT7 Clone (Rattus norvegicus, UniProt P32305); experiment: Serotonin--5HT7 Clone Binding Assay; details: 10^-6 M, [3H]LSD 2.0 nM, read-out: Receptor Binding Activity Percent Inhibition Average (N = 2)
T10 construct: expressed in transfected cells
T10 sequence (P32305 whole entry): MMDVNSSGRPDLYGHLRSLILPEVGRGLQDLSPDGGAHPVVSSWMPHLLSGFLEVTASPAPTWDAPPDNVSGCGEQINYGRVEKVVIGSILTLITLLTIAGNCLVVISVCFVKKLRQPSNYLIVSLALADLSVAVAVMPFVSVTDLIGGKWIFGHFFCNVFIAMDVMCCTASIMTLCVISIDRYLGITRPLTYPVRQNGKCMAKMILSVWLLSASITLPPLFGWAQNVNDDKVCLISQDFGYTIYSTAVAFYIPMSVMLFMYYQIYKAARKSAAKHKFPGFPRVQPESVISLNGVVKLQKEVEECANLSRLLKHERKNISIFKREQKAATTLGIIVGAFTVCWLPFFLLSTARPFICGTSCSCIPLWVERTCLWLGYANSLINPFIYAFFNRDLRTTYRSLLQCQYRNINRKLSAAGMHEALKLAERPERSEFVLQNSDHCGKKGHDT

[6] = biological target: T11, Inositol Triphosphate (IP3) (Rattus norvegicus, UniProt P29994); experiment: Inositol Triphosphate (IP3) Binding Assay; details: 10^-6 M; Rat cerebellar membranes; [3H]IP3 4.0 nM; read-out: Receptor Binding Activity Percent Inhibition Average (N = 2)
T11 construct: Rat cerebellar membranes; from tissue; host or cells: rat cerebellar membranes
T11 sequence (P29994 whole entry): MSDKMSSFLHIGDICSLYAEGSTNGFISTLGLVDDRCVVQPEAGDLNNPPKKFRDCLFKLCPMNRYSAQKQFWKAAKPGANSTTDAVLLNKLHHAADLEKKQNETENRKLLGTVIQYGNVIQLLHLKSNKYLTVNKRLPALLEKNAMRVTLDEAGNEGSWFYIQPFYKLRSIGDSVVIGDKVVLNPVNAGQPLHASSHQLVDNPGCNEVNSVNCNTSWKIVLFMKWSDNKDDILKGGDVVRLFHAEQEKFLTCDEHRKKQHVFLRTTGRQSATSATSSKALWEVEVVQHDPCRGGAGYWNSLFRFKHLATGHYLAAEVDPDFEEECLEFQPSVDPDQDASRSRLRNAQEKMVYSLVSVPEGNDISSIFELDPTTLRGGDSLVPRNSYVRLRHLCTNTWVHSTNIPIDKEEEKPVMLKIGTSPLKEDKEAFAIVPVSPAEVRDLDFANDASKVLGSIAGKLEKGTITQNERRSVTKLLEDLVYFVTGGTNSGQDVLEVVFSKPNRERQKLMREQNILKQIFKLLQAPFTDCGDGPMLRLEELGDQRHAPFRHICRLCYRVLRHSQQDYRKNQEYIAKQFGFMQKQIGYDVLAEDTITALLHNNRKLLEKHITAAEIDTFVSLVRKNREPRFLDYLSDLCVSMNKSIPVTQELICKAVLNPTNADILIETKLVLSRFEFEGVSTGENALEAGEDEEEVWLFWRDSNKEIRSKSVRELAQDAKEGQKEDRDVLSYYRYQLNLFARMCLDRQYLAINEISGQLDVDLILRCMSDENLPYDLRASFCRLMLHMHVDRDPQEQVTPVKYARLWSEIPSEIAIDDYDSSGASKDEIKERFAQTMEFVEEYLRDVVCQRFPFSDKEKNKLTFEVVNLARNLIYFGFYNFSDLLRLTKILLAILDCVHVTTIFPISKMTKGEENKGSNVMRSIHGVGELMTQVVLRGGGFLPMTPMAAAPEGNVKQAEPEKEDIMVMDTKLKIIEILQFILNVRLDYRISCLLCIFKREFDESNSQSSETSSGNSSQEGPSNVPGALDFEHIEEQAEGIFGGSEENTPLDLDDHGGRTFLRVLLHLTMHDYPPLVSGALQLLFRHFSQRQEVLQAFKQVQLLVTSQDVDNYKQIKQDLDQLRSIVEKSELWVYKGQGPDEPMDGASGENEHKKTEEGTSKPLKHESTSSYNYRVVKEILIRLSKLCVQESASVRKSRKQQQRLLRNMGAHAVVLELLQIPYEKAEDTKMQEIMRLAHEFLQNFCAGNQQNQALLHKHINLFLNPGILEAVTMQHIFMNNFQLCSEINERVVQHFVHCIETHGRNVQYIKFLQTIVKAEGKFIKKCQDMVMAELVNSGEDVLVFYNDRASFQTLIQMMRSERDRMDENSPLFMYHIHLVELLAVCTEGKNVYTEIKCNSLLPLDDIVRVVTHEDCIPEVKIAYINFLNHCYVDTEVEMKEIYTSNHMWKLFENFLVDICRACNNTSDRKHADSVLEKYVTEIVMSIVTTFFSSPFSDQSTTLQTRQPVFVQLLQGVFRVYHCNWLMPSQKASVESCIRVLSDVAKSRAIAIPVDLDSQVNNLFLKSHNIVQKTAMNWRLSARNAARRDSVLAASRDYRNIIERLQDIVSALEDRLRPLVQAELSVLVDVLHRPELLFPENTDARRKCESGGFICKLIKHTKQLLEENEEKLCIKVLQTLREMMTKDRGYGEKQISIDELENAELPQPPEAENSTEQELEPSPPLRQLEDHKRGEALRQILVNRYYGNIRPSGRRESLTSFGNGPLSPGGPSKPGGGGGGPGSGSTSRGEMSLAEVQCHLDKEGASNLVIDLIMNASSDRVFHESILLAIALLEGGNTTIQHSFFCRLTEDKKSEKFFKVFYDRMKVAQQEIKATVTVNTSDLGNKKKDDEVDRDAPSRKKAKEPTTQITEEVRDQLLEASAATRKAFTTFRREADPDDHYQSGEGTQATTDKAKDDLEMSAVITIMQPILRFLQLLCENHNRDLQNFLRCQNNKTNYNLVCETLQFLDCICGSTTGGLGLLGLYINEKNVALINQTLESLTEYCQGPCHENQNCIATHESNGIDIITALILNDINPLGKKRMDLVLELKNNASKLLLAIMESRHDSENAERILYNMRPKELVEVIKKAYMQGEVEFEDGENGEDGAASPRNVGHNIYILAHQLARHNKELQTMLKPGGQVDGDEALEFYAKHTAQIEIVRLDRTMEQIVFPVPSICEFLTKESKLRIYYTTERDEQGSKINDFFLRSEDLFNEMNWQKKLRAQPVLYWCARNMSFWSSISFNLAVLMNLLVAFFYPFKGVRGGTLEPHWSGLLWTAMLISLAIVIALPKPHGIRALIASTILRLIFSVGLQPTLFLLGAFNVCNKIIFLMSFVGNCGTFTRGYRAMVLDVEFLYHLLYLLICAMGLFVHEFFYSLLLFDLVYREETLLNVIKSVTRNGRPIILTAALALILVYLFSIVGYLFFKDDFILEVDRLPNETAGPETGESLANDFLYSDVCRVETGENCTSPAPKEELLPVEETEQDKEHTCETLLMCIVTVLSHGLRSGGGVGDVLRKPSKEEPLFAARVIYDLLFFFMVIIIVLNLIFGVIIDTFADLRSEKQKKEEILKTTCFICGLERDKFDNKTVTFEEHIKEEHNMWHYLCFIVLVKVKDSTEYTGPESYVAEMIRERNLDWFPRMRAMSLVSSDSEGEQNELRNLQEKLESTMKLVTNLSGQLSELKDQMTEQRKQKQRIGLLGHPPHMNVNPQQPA
Procedure: Tissue cultures were prepared using standard laboratory practice for the following tissues: human recombinant M1 clone, human recombinant M2 clone, guinea pig striatal membranes, rat cortical membranes, rat striatal membranes, rat forebrain membranes, bovine hippocampal membranes, guinea pig cerebellar membranes, rat kidney membranes, recombinant rat 5HT7 clone, and rat cerebellar membranes.
Inositol Triphosphate (IP3) Binding Assay
Rat cerebellar membranes
Radioligand: [^3 H]IP3 (10-30 Ci/mmol)
Final ligand concentration - [4.0 nM]
D-myo-inositol 1,4,5-triphosphate
Reactions are carried out in 50 mM TRIS-HCl (pH 8.3)
1 mM EDTA at 0° C. for 10 minutes. The reaction is
rapid vacuum filtration onto glass fiber filters.
onto the filters is determined and compared to control
order to ascertain any interactions of test compound with
inositol triphospate binding site.

[7] = tested on: Glutamic Acid Decarboxylase (GAD); experiment: Glutamic Acid Decarboxylase (GAD) Enzyme Assay; format: biochemical; details: 10^-8 M; Rat corpus striatal membranes; [14C]L-Glutamic acid
Procedure: Radioimmunoassay studies were conducted with rat corpus striatal membranes using the following method.
Glutamic Acid Decarboxylase (GAD) Enzyme Assay
Rat corpus striatal membranes
Substrate: [^14 C]L-Glutamic acid (30-80 Ci/mmol)
Reactions are incubated in phosphate/mercapoethanol buffer
6.9) for 30 minutes at 37° C. The reaction is
stopped by the addition
of trichloroacetic acid and placement on ice. Radioactive
trapped in phenylethylamine/methanol and quantitated using
scintillation […] in order to ascertain any
of test compounds with the glutamic acid decarboxylase

[8] = in the human; in vivo; cited from earlier work
[9] = tested on: glutamatergic transmission; details: application to CNS sites in vitro; cited from earlier work

Question: What does the source list for `CN1CCCC1c1cccnc1` (centres unmarked) [Nicotine, reference compound]?
Answer: Receptor Binding Activity Percent Inhibition Average (N = 2) (dopamine uptake site): 9.2%; inhibition at 1 µM (GABA uptake site): 12.1%; Receptor Binding Activity Percent Inhibition Average (N = 2) (Dopamine (D1 Central)): 2.6%; inhibition at 1 µM (Histamine (H2)): 45.9%; inhibition at 1 µM (Histamine (H3)): 13.5%; Receptor Binding Activity Percent Inhibition Average (N = 2) (Serotonin (5HT1)): -1.4%; inhibition at 1 µM (Serotonin (5HT1A)): 3.3%; Receptor Binding Activity Percent Inhibition Average (N = 2) [1]: 6.3%; inhibition at 1 µM (Opiate (Delta)): 10.1%; inhibition at 1 µM [2]: 3.1%; inhibition at 1 µM [3]: 1.5%; inhibition at 1 µM [4]: 4.4%; inhibition at 1 µM [5]: 8%; inhibition at 1 µM [6]: 3.2%; Percent Inhibition [7]: 40%; half-life [8]: one to two; amplitude of the evoked currents [9]: more than doubled

From US5889029A, “Use of cotinine in treating psychiatric disorders” (priority 1997, dated 1999)
